The target in data set [1] is T1, human neutrophil elastase (HNE) (Homo sapiens, UniProt P08246).
T1 construct: purchased Sigma-Aldrich E8140
T1 sequence (P08246 30-267): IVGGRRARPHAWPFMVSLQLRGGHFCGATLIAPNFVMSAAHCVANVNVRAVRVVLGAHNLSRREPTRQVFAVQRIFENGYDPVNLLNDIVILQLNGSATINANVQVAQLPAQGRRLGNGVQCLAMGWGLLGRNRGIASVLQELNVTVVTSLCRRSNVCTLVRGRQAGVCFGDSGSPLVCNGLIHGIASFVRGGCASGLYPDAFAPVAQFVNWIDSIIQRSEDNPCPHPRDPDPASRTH
Kind of data set: Protease inhibition assay, human neutrophil elastase (chromogenic substrate, Dixon method). It counts as biochemical. From the text: (§1) Human neutrophils elastase (HNE, E8140), porcine pancreatic elastase (PPE, E0127), cathepsin G (CG, C4428), human trypsin (T6424), α-chymotrypsin from human pancreas (C8946), and thrombin from human plasma (T4393) were all purchased from Sigma-Aldrich (USA). Factor Xa (FXa, HFXa 1011) and Factor XIIa (FXIIa, HFXIIa 1212a) were from Enzyme Research Laboratories (South Bend, IN, USA). Kallikrein from human plasma (420307) was from Merck Millipore (Billerica, MA, USA).
Substrate for HNE and PPE (MeOSuc-Ala-Ala-Pro-Val-pNA, 324696) was purchased from Merck Millipore (USA). Substrates for CG (Succinyl-Ala-Ala-Pro-Phe-pNA, 573462), trypsin (Nalpha-Benzoyl-L-arginine 4-nitroanilide hydrochloride, B3133), FXa (CH3OCO-D-CHA-Gly-Arg-pNA-AcOH, F3301), chymotrypsin (N-Succinyl-Gly-Gly-Phe-pNA, S1899), thrombin (β-Ala-Gly-Arg-pNA diacetate, T3068), and kallikrein (Z-Phe-Arg 7-amido-4-methylcoumarin hydrochloride, C9521) were purchased from Sigma-Aldrich (USA).
(§2) As mentioned in our previous study, experiments for protease inhibitory activity were assayed in buffer (0.05 M Tris-HCl, pH 7.8) at 37 °C. […] At the end of the incubation, the reaction was initiated by the addition of the exclusive substrate solution and monitored by recording the absorbance at 405 nm every 30 s for 30 min. Enzyme activity in each well was calculated based on the initial slope of the reaction curve, and percentage of the initial slope of the uninhibited reaction was expressed. The inhibition constant Ki value was determined according to the Dixon method.

The target of data set [2] is T2, porcine pancreatic elastase (PPE) (Sus scrofa, UniProt P00772).
T2 construct: purchased Sigma-Aldrich E0127
The data set can be described thus: Surface plasmon resonance, ShSPI immobilized, PPE injected. Conditions: SPR Biacore 3000, ShSPI on CM5 chip, PPE injected 180 s at 10 μL/min, HBS-P buffer, Langmuir binding fit; read-out: ka, PPE. Here is the method: (§3) Sensor chips CM5 (BR100012), 10 mM acetate buffer (BR100350, pH 4.0), amine coupling kit (BR100050), and HBS-P buffer (BR100826, used as running buffer) were all obtained from GE Healthcare Bio-sciences AB (Uppsala, Sweden). Data were collected and analyzed by BIAcore System (Version 3000, GE Healthcare Life Sciences, Pittsburgh, PA, USA) and BIA evaluation software (Version 3.0, GE Healthcare Life Sciences, Pittsburgh, PA, USA).
(§4) Before testing, ShSPI (100 μg/mL in acetate buffer, pH 4.0) was immobilized to the surface of CM5 chip. Following a standard amine coupling chemistry, running buffer was used to reach equilibration. HNE or PPE (doubling dilution) was injected over the immobilized ShSPI at a flow rate of 10 μL/min, and the association rate (ka, M^−1s^−1) was determined. After 3 min, running buffer was applied to the surface, and the dissociation rate (kd, s^−1) was determined over 15 min for PPE and 30 min for HNE, and another 500 μL of running buffer were injected at a flow rate of 20 μL/min to rebalance the chip. The equilibrium association constant (KA, M^−1) and the equilibrium dissociation constant (KD, M) were determined by ka/kd and kd/ka, respectively.
(In general: SPR reads the build-up and loss of mass on a sensor chip optically.)

The target of data set [3] is T2, porcine pancreatic elastase (PPE). Kind of data set: Protease inhibition assay, porcine pancreatic elastase (chromogenic substrate, Dixon method). It counts as biochemical. Conditions: 0.05 M Tris-HCl pH 7.8, 37 °C, 10 min pre-incubation, PPE 1 μg/mL, substrate MeOSuc-Ala-Ala-Pro-Val-pNA 30, 60, 90 μg/mL, absorbance 405 nm.
Source text: as §1
Substrate for HNE and PPE (MeOSuc-Ala-Ala-Pro-Val-pNA, 324696) was purchased from Merck Millipore (USA). […]
as §2

The nature of data set [4]: Plasma stability, read out by enzyme inhibitory activity. It counts as in vitro ADME. Conditions: lyophilized human plasma resuspended in water, 500 nM, 37 °C, 0-48 h, triplicate samples. Here is the method: Lyophilized human plasma (400100, Cayman, Ann Arbor, MI, USA) was resuspended in sterile water according to the instruction, then ShSPI was added to each equivalent volume with a final concentration of 500 nM, and samples were co-incubated at 37 °C for two days. Triplicate samples were collected at selected time points (0, 6, 12, 18, 24, 30, 36, 42, and 48 h) and protease activity was tested as described above.

Data set [5] deals with T1, human neutrophil elastase (HNE). Kind of data set: Surface plasmon resonance, ShSPI immobilized, HNE injected. Conditions: SPR Biacore 3000, ShSPI on CM5 chip, HNE injected 180 s at 10 μL/min, HBS-P buffer, Langmuir binding fit; read-out: ka, HNE. On the procedure:
as §3, §4

Data set [6] concerns the target T2, porcine pancreatic elastase (PPE). Further details: method as in PMID 2049103. Conditions: reported; cited from earlier work.

Where a SMILES comes first, the peptide text is derived from it. Bridges are numbered along the chain shown (N, C = ends).

T2 sequence (P00772 27-266): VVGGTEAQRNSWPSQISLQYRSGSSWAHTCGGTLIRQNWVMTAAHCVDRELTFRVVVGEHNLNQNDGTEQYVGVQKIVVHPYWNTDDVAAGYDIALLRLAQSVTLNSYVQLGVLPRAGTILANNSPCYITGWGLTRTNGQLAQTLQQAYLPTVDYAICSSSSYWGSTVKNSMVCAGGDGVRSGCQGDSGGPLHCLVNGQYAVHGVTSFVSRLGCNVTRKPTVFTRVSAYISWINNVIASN

Take `CC[C@H](C)[C@@H]1NC(=O)[C@H](C)NC(=O)[C@@H]2CCCN2C(=O)[C@@H]2CSSC[C@H](NC(=O)[C@H](CO)NC(=O)[C@H](CC(N)=O)NC(=O)[C@H](CO)NC(=O)[C@H](Cc3ccc(O)cc3)NC(=O)[C@H](CCSC)NC(=O)[C@H](CCCNC(=N)N)NC(=O)CNC(=O)[C@H](Cc3ccccc3)NC(=O)[C@H](CCC(=O)O)NC(=O)[C@H](CC(=O)O)NC(=O)[C@H](Cc3ccccc3)NC(=O)[C@H](C(C)C)NC(=O)[C@@H]3CCCN3C(=O)[C@H](CCC(N)=O)NC(=O)[C@H](Cc3ccc(O)cc3)NC1=O)C(=O)N[C@@H](CCC(=O)O)C(=O)N[C@@H](CCSC)C(=O)N[C@@H](CCC(N)=O)C(=O)N[C@@H](CCCNC(=N)N)C(=O)N[C@@H](C)C(=O)N[C@@H](CCCNC(=N)N)C(=O)N[C@H](C(=O)N[C@@H](CC(C)C)C(=O)N[C@@H](CCCNC(=N)N)C(=O)NCC(=O)O)CSSC[C@H](N)C(=O)N1CCC[C@H]1C(=O)N[C@@H](CCC(N)=O)C(=O)N[C@@H](C(C)C)C(=O)N2` [ShSPI] (H-CPQVCPAIYQPVFDEFGRMYSNSCEMQRARCLRG-OH; disulfide 1-31, 5-24): the values for the inhibition constant (Ki) in data set [1] and in data set [3] were 0.0126 ± 0.002 µM and 0.226 ± 0.02 µM, respectively. Also, the kon in data set [2] amounted to 45000 M⁻¹ s⁻¹; in data set [5] it was 4500 M⁻¹ s⁻¹. Moreover, in data set [4], the “Stability in human plasma” value is listed as “no significant degradation over 48 h”.

Consider `CC[C@H](C)[C@@H]1NC(=O)[C@H](C)NC(=O)[C@@H]2CCCN2C(=O)[C@@H]2CSSC[C@H](NC(=O)[C@H](CO)NC(=O)[C@H](CC(N)=O)NC(=O)[C@H](CO)NC(=O)[C@H](Cc3ccc(O)cc3)NC(=O)[C@H](CCSC)NC(=O)[C@H](CCCNC(=N)N)NC(=O)CNC(=O)[C@H](Cc3ccccc3)NC(=O)[C@H](CCC(=O)O)NC(=O)[C@H](CC(=O)O)NC(=O)[C@H](Cc3ccccc3)NC(=O)[C@H](C(C)C)NC(=O)[C@@H]3CCCN3C(=O)[C@H](CCC(N)=O)NC(=O)[C@H](Cc3ccc(O)cc3)NC1=O)C(=O)N[C@@H](CCC(=O)O)C(=O)N[C@@H](CCSC)C(=O)N[C@@H](CCC(N)=O)C(=O)N[C@@H](CCCNC(=N)N)C(=O)N[C@@H](C)C(=O)N[C@@H](CCCNC(=N)N)C(=O)N[C@H](C(=O)N[C@@H](CC(C)C)C(=O)N[C@@H](CCCNC(=N)N)C(=O)NCC(=O)O)CSSC[C@H](N)C(=O)N1CCC[C@H]1C(=O)N[C@@H](CCC(N)=O)C(=O)N[C@@H](C)C(=O)N2` [V4A] (H-CPQACPAIYQPVFDEFGRMYSNSCEMQRARCLRG-OH; disulfide 1-31, 5-24), for which the affinity in data set [1] corresponds to a Ki of 0.0132 µM.

As to `CC[C@H](C)[C@@H]1NC(=O)[C@H](C)NC(=O)[C@@H]2CCCN2C(=O)[C@@H]2CSSC[C@H](NC(=O)[C@H](CO)NC(=O)[C@H](CC(N)=O)NC(=O)[C@H](CO)NC(=O)[C@H](Cc3ccc(O)cc3)NC(=O)[C@H](CCSC)NC(=O)[C@H](CCCNC(=N)N)NC(=O)CNC(=O)[C@H](Cc3ccccc3)NC(=O)[C@H](CCC(=O)O)NC(=O)[C@H](CC(=O)O)NC(=O)[C@H](Cc3ccccc3)NC(=O)[C@H](C(C)C)NC(=O)[C@@H]3CCCN3C(=O)[C@H](CCC(N)=O)NC(=O)[C@H](C)NC1=O)C(=O)N[C@@H](CCC(=O)O)C(=O)N[C@@H](CCSC)C(=O)N[C@@H](CCC(N)=O)C(=O)N[C@@H](CCCNC(=N)N)C(=O)N[C@@H](C)C(=O)N[C@@H](CCCNC(=N)N)C(=O)N[C@H](C(=O)N[C@@H](CC(C)C)C(=O)N[C@@H](CCCNC(=N)N)C(=O)NCC(=O)O)CSSC[C@H](N)C(=O)N1CCC[C@H]1C(=O)N[C@@H](CCC(N)=O)C(=O)N[C@@H](C(C)C)C(=O)N2` [Y9A] (H-CPQVCPAIAQPVFDEFGRMYSNSCEMQRARCLRG-OH; disulfide 1-31, 5-24), the Ki in data set [1] is over 1000 µM.

Regarding `CC(C)(C)C(=O)Oc1ccc(S(=O)(=O)Nc2ccccc2C(=O)NCC(=O)O)cc1` [sivelestat], the “Inhibitory activity to PPE (literature)” value in data set [6] is recorded as “little inhibitory activity”.

As usually defined, the Ki is a measure of affinity in units of concentration, obtained from inhibition or displacement.
